According to ChEMBL document CHEMBL1131247, “Substituted naphthofurans as hallucinogenic phenethylamine-ergoline hybrid molecules with unexpected muscarinic antagonist activity” (J Med Chem, 1998):
The source made the active and inactive calls. The rule behind the calls is not given here.

Experiments:
[1] = biological target: T1, Muscarinic acetylcholine receptor M1 (Mus musculus) (UniProt P12657)
T1 sequence (whole entry): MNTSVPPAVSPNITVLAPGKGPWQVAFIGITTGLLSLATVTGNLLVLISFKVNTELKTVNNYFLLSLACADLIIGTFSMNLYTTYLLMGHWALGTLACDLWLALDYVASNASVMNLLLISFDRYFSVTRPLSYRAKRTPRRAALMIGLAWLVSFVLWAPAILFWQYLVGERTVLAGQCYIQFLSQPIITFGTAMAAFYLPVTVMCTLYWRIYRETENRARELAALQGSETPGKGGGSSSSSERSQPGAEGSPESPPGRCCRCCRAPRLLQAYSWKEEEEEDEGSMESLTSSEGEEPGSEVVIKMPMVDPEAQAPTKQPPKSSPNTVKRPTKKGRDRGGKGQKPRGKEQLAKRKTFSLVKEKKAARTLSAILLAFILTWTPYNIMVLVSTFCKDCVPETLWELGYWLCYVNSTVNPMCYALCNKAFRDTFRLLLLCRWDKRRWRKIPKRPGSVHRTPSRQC

[2] = biological target: Muscarinic acetylcholine receptor M3 (Rattus norvegicus) (UniProt P08483)
Muscarinic acetylcholine receptor M3 (Rattus norvegicus), sequence (P08483 whole entry, looked up): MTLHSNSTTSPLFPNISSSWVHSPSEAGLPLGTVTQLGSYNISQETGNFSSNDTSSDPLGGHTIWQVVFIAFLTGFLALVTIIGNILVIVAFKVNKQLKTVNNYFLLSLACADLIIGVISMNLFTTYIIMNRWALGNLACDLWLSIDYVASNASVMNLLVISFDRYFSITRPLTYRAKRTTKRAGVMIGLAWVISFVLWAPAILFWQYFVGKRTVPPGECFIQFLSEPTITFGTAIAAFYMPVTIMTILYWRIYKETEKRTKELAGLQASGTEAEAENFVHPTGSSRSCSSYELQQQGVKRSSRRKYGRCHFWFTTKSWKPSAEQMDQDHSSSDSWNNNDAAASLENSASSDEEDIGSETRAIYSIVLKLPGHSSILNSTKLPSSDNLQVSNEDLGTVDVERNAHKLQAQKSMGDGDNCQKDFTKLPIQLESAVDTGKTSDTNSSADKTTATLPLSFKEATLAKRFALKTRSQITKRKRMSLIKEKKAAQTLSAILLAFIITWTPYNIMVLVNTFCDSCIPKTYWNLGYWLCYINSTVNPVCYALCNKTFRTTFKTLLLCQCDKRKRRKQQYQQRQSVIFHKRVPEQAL

[3] = biological target: T2, Muscarinic acetylcholine receptor M4 (Rattus norvegicus) (UniProt P08485)
T2 sequence (whole entry): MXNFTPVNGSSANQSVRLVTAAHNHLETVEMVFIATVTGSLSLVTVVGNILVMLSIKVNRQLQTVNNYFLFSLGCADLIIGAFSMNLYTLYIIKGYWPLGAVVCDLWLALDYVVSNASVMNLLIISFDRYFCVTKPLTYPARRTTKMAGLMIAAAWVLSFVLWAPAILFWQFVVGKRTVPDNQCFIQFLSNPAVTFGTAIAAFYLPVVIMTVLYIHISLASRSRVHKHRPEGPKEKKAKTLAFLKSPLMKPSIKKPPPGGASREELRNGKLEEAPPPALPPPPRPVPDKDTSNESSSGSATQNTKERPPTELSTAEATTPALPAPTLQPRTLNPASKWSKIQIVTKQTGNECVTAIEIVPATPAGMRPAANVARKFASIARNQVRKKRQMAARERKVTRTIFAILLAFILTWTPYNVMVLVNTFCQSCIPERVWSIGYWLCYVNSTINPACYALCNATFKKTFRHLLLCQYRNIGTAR

[4] = biological target: T3, Muscarinic acetylcholine receptor M5 (Rattus norvegicus) (UniProt P08911)
T3 sequence (whole entry): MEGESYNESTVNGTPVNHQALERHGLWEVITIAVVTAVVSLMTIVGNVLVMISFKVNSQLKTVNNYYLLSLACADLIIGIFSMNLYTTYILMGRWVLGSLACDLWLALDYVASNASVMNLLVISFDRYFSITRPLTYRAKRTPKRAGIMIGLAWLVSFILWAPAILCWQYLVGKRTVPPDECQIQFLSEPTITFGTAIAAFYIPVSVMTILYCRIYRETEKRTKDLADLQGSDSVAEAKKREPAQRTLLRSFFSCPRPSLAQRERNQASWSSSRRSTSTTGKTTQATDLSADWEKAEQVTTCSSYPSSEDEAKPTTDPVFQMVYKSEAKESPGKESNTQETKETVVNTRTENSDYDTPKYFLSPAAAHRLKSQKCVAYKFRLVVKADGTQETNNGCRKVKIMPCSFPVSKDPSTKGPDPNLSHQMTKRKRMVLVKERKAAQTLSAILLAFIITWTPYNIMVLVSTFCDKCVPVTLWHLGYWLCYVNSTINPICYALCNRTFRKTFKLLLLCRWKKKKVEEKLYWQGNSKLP

[5] = biological target: T4, Muscarinic acetylcholine receptor M2 (Rattus norvegicus) (UniProt P10980)
T4 sequence (whole entry): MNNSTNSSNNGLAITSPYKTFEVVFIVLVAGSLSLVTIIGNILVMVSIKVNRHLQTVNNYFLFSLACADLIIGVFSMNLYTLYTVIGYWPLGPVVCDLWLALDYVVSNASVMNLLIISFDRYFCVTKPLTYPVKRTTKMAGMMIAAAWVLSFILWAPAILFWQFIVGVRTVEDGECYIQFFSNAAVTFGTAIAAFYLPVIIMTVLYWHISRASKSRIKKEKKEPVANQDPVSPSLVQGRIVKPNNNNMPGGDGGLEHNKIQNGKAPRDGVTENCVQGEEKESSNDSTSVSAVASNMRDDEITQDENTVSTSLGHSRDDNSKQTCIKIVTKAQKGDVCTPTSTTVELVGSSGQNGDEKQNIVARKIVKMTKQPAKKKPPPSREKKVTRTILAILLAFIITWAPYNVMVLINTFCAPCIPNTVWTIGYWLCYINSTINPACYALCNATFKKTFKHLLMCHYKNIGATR

[6] = biological target: 5-hydroxytryptamine receptor 2A (Homo sapiens, UniProt P28223); test: Binding ability of compound at cloned human 5-hydroxytryptamine 2A receptor using [125 I]DOI as radioligand
5-hydroxytryptamine receptor 2A (Homo sapiens, UniProt P28223), sequence (P28223 whole entry): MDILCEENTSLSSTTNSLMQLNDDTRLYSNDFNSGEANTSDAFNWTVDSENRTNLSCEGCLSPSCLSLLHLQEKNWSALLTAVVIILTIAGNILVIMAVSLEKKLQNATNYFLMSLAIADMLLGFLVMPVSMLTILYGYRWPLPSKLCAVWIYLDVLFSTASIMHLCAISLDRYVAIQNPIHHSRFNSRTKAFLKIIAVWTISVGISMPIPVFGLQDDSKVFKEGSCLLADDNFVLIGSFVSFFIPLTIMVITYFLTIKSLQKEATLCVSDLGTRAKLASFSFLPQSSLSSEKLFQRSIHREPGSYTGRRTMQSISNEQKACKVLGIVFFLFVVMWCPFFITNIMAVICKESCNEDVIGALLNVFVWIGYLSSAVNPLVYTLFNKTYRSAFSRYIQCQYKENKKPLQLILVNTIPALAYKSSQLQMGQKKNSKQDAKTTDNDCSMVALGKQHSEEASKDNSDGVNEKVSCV

Rattus norvegicus [7] = test: Percentage of animals failing to emit 50 presses on either lever within the 15-min test period in rat at 2.92 mg/kg (8 uM/kg); assay type: functional
Rattus norvegicus [8] = test: Percentage of animals failing to emit 50 presses on either lever within the 15-min test period in rat at 1.46 mg/kg (4 uM/kg); assay type: functional
Rattus norvegicus [9] = test: Percentage of animals failing to emit 50 presses on either lever within the 15-min test period in rat at 0.78 mg/kg (2 umol/kg); assay type: functional
[10] = biological target: 5-hydroxytryptamine receptor 2B (Homo sapiens, UniProt P41595); test: Binding ability of compound at cloned human 5-hydroxytryptamine 2B receptor using [3H]5-HT 2B as radioligand
5-hydroxytryptamine receptor 2B, sequence (P41595 whole entry): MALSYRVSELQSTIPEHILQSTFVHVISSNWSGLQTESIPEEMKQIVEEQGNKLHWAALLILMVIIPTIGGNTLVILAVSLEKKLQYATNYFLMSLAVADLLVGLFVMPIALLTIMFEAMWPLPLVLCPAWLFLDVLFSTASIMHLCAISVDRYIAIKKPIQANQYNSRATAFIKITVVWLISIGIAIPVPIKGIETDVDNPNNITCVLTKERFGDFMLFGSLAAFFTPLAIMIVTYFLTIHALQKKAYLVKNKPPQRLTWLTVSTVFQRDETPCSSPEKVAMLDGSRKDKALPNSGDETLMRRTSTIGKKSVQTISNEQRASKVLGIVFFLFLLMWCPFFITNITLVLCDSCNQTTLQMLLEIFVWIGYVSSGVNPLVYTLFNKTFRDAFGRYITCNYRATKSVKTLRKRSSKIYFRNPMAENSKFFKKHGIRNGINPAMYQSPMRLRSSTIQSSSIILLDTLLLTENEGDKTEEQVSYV

Rattus norvegicus [11] = species: Rattus norvegicus; test: (§1) Effective dose for LSD-like behavioral effect in rats; Not significant; assay type: functional, organism-based
[12] = biological target: T5, 5-hydroxytryptamine receptor 2C (Homo sapiens, UniProt P28335); test: Binding ability of compound at cloned human 5-hydroxytryptamine 2C receptor using [125 I]DOI as radioligand
T5 sequence (P28335 whole entry): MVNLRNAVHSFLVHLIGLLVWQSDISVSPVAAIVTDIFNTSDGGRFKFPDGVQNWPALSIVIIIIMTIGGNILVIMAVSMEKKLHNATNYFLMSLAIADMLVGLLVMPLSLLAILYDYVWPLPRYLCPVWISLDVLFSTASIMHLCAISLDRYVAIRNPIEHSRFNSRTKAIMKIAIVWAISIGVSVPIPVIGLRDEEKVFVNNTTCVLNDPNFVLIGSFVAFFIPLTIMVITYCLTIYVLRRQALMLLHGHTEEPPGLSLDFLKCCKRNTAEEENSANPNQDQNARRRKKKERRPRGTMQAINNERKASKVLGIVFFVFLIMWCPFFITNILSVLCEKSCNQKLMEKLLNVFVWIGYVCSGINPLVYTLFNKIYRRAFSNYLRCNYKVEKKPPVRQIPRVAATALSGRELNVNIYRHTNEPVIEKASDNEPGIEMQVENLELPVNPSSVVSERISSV

[13] = biological target: 5-hydroxytryptamine receptor 2A (Rattus norvegicus, UniProt P14842); test: Affinity at [3H]ketanserin-labeled 5-hydroxytryptamine 2A receptor in rat brain homogenate was determined; assay type: tissue-based
5-hydroxytryptamine receptor 2A (Rattus norvegicus, UniProt P14842), sequence (P14842 whole entry): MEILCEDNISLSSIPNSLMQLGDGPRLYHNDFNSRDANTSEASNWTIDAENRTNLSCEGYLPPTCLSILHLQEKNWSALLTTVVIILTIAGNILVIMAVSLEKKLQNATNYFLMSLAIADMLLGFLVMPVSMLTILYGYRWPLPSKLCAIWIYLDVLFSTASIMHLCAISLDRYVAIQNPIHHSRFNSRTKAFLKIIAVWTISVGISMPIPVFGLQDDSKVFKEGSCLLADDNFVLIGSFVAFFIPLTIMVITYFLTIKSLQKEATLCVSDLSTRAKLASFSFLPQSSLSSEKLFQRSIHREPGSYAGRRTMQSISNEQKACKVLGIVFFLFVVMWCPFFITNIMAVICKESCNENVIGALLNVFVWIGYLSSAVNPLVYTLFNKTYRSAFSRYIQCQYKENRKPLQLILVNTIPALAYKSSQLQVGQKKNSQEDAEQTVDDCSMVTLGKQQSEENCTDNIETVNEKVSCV

Rattus norvegicus [14] = species: Rattus norvegicus; test: Percentage of animals emitting 50 presses on the LSD appropriate lever during the test period; assay type: functional
Rattus norvegicus [15] = test: Percentage of animals failing to emit 50 presses on either lever within the 15-min test period in rat at 5.84 mg/kg (16 uM/kg); assay type: functional
Rattus norvegicus [16] = test: Percentage of animals failing to emit 50 presses on either lever within the 15-min test period in rat at 0.365 mg/kg (1 uM/kg); assay type: functional
Rattus norvegicus [17] = species: Rattus norvegicus; test: as §1; assay type: functional, organism-based; remark: listed apart in the source

| Structure (SMILES) | K 0.5 [1] [nM] | K 0.5 [2] [nM] | K 0.5 [3] [nM] | K 0.5 [4] [nM] | K 0.5 [5] [nM] | Ki [6] [µM] | D (Rattus norvegicus [7]) [%] | D (Rattus norvegicus [8]) [%] | D (Rattus norvegicus [9]) [%] | Ki [10] [µM] | ED50 (Rattus norvegicus [11]) | Ki [12] [µM] | Ki [13] [µM] | SDL (Rattus norvegicus [14]) [%] | D (Rattus norvegicus [15]) [%] | D (Rattus norvegicus [16]) [%] | ED50 (Rattus norvegicus [17]) |
| --- | --- | --- | --- | --- | --- | --- | --- | --- | --- | --- | --- | --- | --- | --- | --- | --- | --- |
| CN1[C@@H]2CC[C@H]1C[C@@H](OC(=O)C(CO)c1ccccc1)C2 (some centres not stated) | 0.6 | 0.6 | 0.5 | 0.7 | 1.8 | – | – | – | – | – | – | – | – | – | – | – | – |
| COc1cc(Br)c2c3c1C[C@H](N)C[C@H]3CO2 | – | – | – | – | – | 8.5 | 0 | 0 | 0 | 11.2 | inactive | 4.19 | 3.88 | 27 | 11 | 0 | inactive |
